# pEC50: −log10 of the molar value. Read-outs that look alike come from different tables or passages of the source.
# Assays:
# HCV Replicon IB = assay: HCV replicon assay in Huh-7 cells, genotype 1b (Rluc luciferase readout); format: cell-based, hepatitis C virus; conditions: 3 days; for inhibition at 10 µM: 72 h, Huh-7 HCV replicon cells, read-out: % inhibition @ 10 μM HCV Replicon IB; for pEC50: HCV1B replicon, Huh-7 cells, read-out: EC50_HCV1B_
# HCV Replicon IA = assay: HCV replicon assay in Huh-7 cells, genotype 1a; format: cell-based; conditions: Hepatitis C virus, 72 h, Huh-7 HCV replicon cells, 3 days
smiles,measurement,setting,value
"C[C@@H](NC(=O)c1cc(O)c2cc(-c3cn[nH]c3)cc(C(F)(F)F)c2n1)c1ccccc1 (single isomer, unassigned) [Compound 18]",inhibition at 10 µM,HCV Replicon IB; Hepatitis C virus,55.8%
same,inhibition at 10 µM,HCV Replicon IA,55.3%
O=C(NCc1ccccc1)c1cc(O)c2cc(-c3cn[nH]c3)cc(C(F)(F)F)c2n1 [Compound 5],inhibition at 10 µM,HCV Replicon IB; Hepatitis C virus,99.2%
same,inhibition at 10 µM,HCV Replicon IA,99.2%
O=C(NCc1cccs1)c1cc(O)c2cc(-c3ccoc3)cc(C(F)(F)F)c2n1 [Compound 7],inhibition at 10 µM,HCV Replicon IB; Hepatitis C virus,99.8%
same,inhibition at 10 µM,HCV Replicon IA,99.2%
O=C(NCc1cncs1)c1cc(O)c2cc(-c3cn[nH]c3)cc(C(F)(F)F)c2n1 [Compound 8],inhibition at 10 µM,HCV Replicon IB; Hepatitis C virus,94%
same,inhibition at 10 µM,HCV Replicon IA,98.8%
O=C(NCc1nccs1)c1cc(O)c2cc(-c3cn[nH]c3)cc(C(F)(F)F)c2n1 [Compound 9],inhibition at 10 µM,HCV Replicon IB; Hepatitis C virus,98.5%
same,inhibition at 10 µM,HCV Replicon IA,98.1%
O=C(NCc1cocn1)c1cc(O)c2cc(-c3cn[nH]c3)cc(C(F)(F)F)c2n1 [Compound 10],inhibition at 10 µM,HCV Replicon IB; Hepatitis C virus,74.3%
same,inhibition at 10 µM,HCV Replicon IA,80.7%
O=C(NCc1cccnc1)c1cc(O)c2cc(-c3cn[nH]c3)cc(C(F)(F)F)c2n1 [Compound 11],inhibition at 10 µM,HCV Replicon IB; Hepatitis C virus,66.1%
same,inhibition at 10 µM,HCV Replicon IA,63.2%
O=C(NCc1ccccn1)c1cc(O)c2cc(-c3cn[nH]c3)cc(C(F)(F)F)c2n1 [Compound 12],inhibition at 10 µM,HCV Replicon IB; Hepatitis C virus,99.2%
same,inhibition at 10 µM,HCV Replicon IA,98.2%
O=C(NCc1ccncc1)c1cc(O)c2cc(-c3cn[nH]c3)cc(C(F)(F)F)c2n1 [Compound 13],inhibition at 10 µM,HCV Replicon IB; Hepatitis C virus,20.7%
same,inhibition at 10 µM,HCV Replicon IA,43.4%
O=C(NCc1ccc(Cl)s1)c1cc(O)c2cc(-c3cc[nH]n3)cc(C(F)(F)F)c2n1 [Compound 14],inhibition at 10 µM,HCV Replicon IB; Hepatitis C virus,68.6%
same,inhibition at 10 µM,HCV Replicon IA,84.2%
O=C(NCc1ccncn1)c1cc(O)c2cc(-c3cn[nH]c3)cc(C(F)(F)F)c2n1 [Compound 15],inhibition at 10 µM,HCV Replicon IB; Hepatitis C virus,47.3%
same,inhibition at 10 µM,HCV Replicon IA,59.3%
O=C(NCCc1ccccc1)c1cc(O)c2cc(-c3cn[nH]c3)cc(C(F)(F)F)c2n1 [Compound 16],inhibition at 10 µM,HCV Replicon IB; Hepatitis C virus,96.7%
same,inhibition at 10 µM,HCV Replicon IA,93%
Cc1cccnc1CNC(=O)c1cc(O)c2cc(-c3cn[nH]c3)cc(C(F)(F)F)c2n1 [Compound 17],inhibition at 10 µM,HCV Replicon IB; Hepatitis C virus,96.4%
same,inhibition at 10 µM,HCV Replicon IA,98.3%
O=C(Nc1ccccc1)c1cc(O)c2cc(-c3cn[nH]c3)cc(C(F)(F)F)c2n1 [Compound 19],inhibition at 10 µM,HCV Replicon IB; Hepatitis C virus,71.1%
same,inhibition at 10 µM,HCV Replicon IA,98.5%
CC(NC(=O)c1cc(O)c2cc(-c3cn[nH]c3)cc(C(F)(F)F)c2n1)c1ccccn1 (stereo not shown) [Compound 20],inhibition at 10 µM,HCV Replicon IB; Hepatitis C virus,89%
same,inhibition at 10 µM,HCV Replicon IA,86.1%
O=C(NCc1ccc(Cl)s1)c1cc(O)c2cc(-c3ccoc3)cc(C(F)(F)F)c2n1 [Compound 23],inhibition at 10 µM,HCV Replicon IB; Hepatitis C virus,99.4%
same,inhibition at 10 µM,HCV Replicon IA,99.9%
Cc1cc(-c2nnc(N[C@H]3CC[C@H](O)CC3)o2)nc2c(C(C)(C)C)cc(OCC(F)(F)F)cc12 [Compound 493],pEC50,"HCV Replicon IB; Hepatitis C virus, Huh-7, 72 h",8.06
CSCOC1(C)CC(Nc2nnc(-c3cc(C)c4cc(OCC(F)(F)F)cc(C(C)(C)C)c4n3)o2)C1 (stereo not shown) [Compound 494],pEC50,"HCV Replicon IB; Hepatitis C virus, Huh-7, 72 h",7.37
Cc1cc(-c2nnc(NC3CC(C)(OCS(C)(=O)=O)C3)o2)nc2c(C(C)(C)C)cc(OCC(F)(F)F)cc12 (stereo not shown) [Compound 495],pEC50,"HCV Replicon IB; Hepatitis C virus, Huh-7, 72 h",7.42
Cc1cc(-c2nnc(N[C@H]3CC[C@@](C)(O)CC3)o2)nc2c(C(C)(C)C)cc(OCC(F)(F)F)cc12 [Compound 496],pEC50,HCV Replicon IB,7.86
Cc1cc(-c2nnc(N[C@H]3CC[C@@](C)(O)CC3)o2)nc2c(C(C)(C)C)cc(OCC(F)(F)F)cc12 [Compound 497],pEC50,HCV Replicon IB,7.13
Cc1cc(-c2nnc(N[C@H]3CC[C@@H](O)CC3)o2)nc2c(C(C)(C)C)cc(OCC(F)(F)F)cc12 [Compound 498],pEC50,"HCV Replicon IB; Hepatitis C virus, Huh-7, 72 h",8.62
Cc1cc(-c2nnc(N[C@H]3C[C@](O)(CO)C3)o2)nc2c(C(C)(C)C)cc(OCC(F)(F)F)cc12 [Compound 499],pEC50,"HCV Replicon IB; Hepatitis C virus, Huh-7, 72 h",7.78
Cc1cc(-c2nnc(N[C@H]3C[C@@](O)(CO)C3)o2)nc2c(C(C)(C)C)cc(OCC(F)(F)F)cc12 [Compound 500],pEC50,"HCV Replicon IB; Hepatitis C virus, Huh-7, 72 h",8.12
COC[C@]1(O)C[C@H](Nc2nnc(-c3cc(C)c4cc(OCC(F)(F)F)cc(C(C)(C)C)c4n3)o2)C1 [Compound 504],pEC50,HCV Replicon IB,8.01
Cc1cc(-c2nnc(NC3CSC3)o2)nc2c(C(C)(C)C)cc(OCC(F)(F)F)cc12 [Compound 505],pEC50,"HCV Replicon IB; Hepatitis C virus, Huh-7, 72 h",8.20
Cc1cc(-c2nnc(NC3CS(=O)(=O)C3)o2)nc2c(C(C)(C)C)cc(OCC(F)(F)F)cc12 [Compound 506],pEC50,"HCV Replicon IB; Hepatitis C virus, Huh-7, 72 h",7.20
Cc1cc(-c2nnc(N[C@H]3C[S@@+]([O-])C3)o2)nc2c(C(C)(C)C)cc(OCC(F)(F)F)cc12 [Compound 507],pEC50,"HCV Replicon IB; Hepatitis C virus, Huh-7, 72 h",7.72
Cc1cc(-c2nnc(N[C@H]3C[S@+]([O-])C3)o2)nc2c(C(C)(C)C)cc(OCC(F)(F)F)cc12 [Compound 508],pEC50,"HCV Replicon IB; Hepatitis C virus, Huh-7, 72 h",7.61
Cc1cc(C(=O)NC[C@@H]2CS(=O)(=O)CCN2)nc2c(C(C)(C)C)cc(OCC(F)(F)F)cc12 [Compound 509],pEC50,"HCV Replicon IB; Hepatitis C virus, Huh-7, 72 h",8.44
Cc1cc(C(=O)NC[C@@H]2CC3(CN2)OCCO3)nc2c(C(C)(C)C)cc(OCC(F)(F)F)cc12 [Compound 510],pEC50,"HCV Replicon IB; Hepatitis C virus, Huh-7, 72 h",8.01
Cc1cc(C(=O)NC[C@@H]2CC3(CN2)OCCO3)nc2c(C(F)(F)F)cc(OCC(F)(F)F)cc12 [Compound 511],pEC50,"HCV Replicon IB; Hepatitis C virus, Huh-7, 72 h",7.49
Cc1cc(-c2nnc(N[C@H]3C[C@](O)(CO)C3)o2)nc2c(C(C)(C)C)cc(C3CC3)cc12 [Compound 513],pEC50,HCV Replicon IB,8.09
